Reference: PMC10250618, “Synthesis, structure-activity relationships and biological evaluation of benzimidazole derived sulfonylurea analogues as a new class of antagonists of P2Y1 receptor” (Frontiers in Pharmacology, 2023)
In brackets after ≈: the same amount, converted by molar mass. Structures can show the parent of a compound that is named as a salt. Where two headings read alike, the source gives them in different places.

What was measured:
[1] = Aqueous solubility assay (UV absorption); format: physicochemical
Method: In eppendorf tubes, over-saturated chemical solutions were prepared by mixing synthesized compound with PBS buffer (pH 7.4). To confirm compound saturation, suspensions were rapidly vortexed for 1 min, sonicated at ambient temperature for 10 min, and then incubated with overnight shaking. After that, compound suspensions were centrifuged at 15,000 RPM for 20 min. Supernatants were cautiously taken out of the tubes and filtered once more using 0.22 µm syringe filters. By using UV-vis absorption spectrometry with standard curves and an already-determined absorption extinction coefficient in the same buffer, the concentrations of the drug in the supernatants were identified.

[2] = molecular target: T1, t-P2Y1 (Meleagris gallopavo, UniProt P49652); assay: Calcium mobilization assay, t-P2Y1 transfected 1321N1 astrocytoma cells; format: cell-based; settings: for IC50: Ca2+ mobilization inhibition, transfected 1321N1 cells, read-out: IC50 ± SEM t-P2Y1; for IC50 / inhibition at 100 µM: 100 μM ADP; for inhibition at 100 µM: 1321-N1, final conc of 100 μM
T1 construct: host or cells: human 1321N1 astrocytoma cells, stably transfected
Method: (§1) Dr. Gary A. Weisman provided human-1321N1 astrocytoma cells that had been transfected by the tP2Y1R, hP2Y2R, hP2Y4R, and rP2Y6R and untransfected 1321N1 astrocytoma cells (University of Missouri Mo., Bond Life Science Center). The DMEM Dulbecco’s Modified Eagle -Medium (Gibco) was added in flasks to cultivate the cell line. 10% of the Fetal bovine serum was also added to the media together with 500 μg/mL of Geneticin (G418) and 1% of the Pen/Strep. The cells in T-75 flask were then cultured and incubated in a CO2 incubator which was maintained at (5%) and 37°C temperature until 90% of the cells were confluent. Throughout the experiment, cells were periodically checked for the confluency and strictly watched for the microbial contamination.
(§2) The FLUOstar Galaxy (BMG LABTECH GmbH, Ortenberg, Germany) microplate reader with two injectors was used to measure the Ca^2+ fluorescence of synthetic compounds. For this assay, 1321N1 transfected cells (t-P2Y1, h-P2Y2, h-P2Y4, and r-P2Y6) were cultured in T-75 flask. When cells reached the confluency of 80%–90%, they were washed with PBS and then Trypsin was added. After trypsinization for 3 min, 20,000 cells/well were allowed to seed in a black wall and 96 well clear bottom plate which was coated with Poly-D-Lysine and allowed to incubate for 24 h in 37°C, 5% CO2 incubator. After incubation, 200 μL culture media was changed with 100 μL HBSS containing Fura-2 AM which is calcium chelating dye and allowed the plate to incubate for 45 min in dark at temp of 37°C in incubator which is maintained with carbon dioxide (5% CO2). After incubation for 45 min, synthesized molecules were added to HBSS washed cells in each well of 96 well plate and re-incubated for 30 min at 37°C. In next step, injection of the endogenous ligand such as ADP through the injector was followed by excitation and emission measurements of Fura-2 AM at 380/520 nm and 340/520. Final volume of the assay per well 200 μL. IC50 values were computed for the compounds displaying more than 50% of activity using Prism 5.0 software (Graph Pad., Inc., San Diego. California, United States) by using analysis i.e., nonlinear regression ([Kassack et al., 2002]; [Ullmann et al., 2005]).

[3] = molecular target: T2, r-P2Y6 (Rattus norvegicus, UniProt Q63371); assay: Calcium mobilization assay, r-P2Y6 transfected 1321N1 astrocytoma cells; format: cell-based; settings: for inhibition at 100 µM: 1321-N1, final conc of 100 μM; for inhibition at 100 µM / IC50: 100 μM of UDP; for IC50: Ca2+ mobilization inhibition, transfected 1321N1 cells, read-out: IC50 ± SEM r-P2Y6
T2 construct: host or cells: human 1321N1 astrocytoma cells, stably transfected
Method: as §1, §2

[4] = molecular target: T3, h-P2Y4 (Homo sapiens, UniProt P51582); assay: Calcium mobilization assay, h-P2Y4 transfected 1321N1 astrocytoma cells; format: cell-based; settings: 500 μM UTP; for IC50: Ca2+ mobilization inhibition, transfected 1321N1 cells, read-out: IC50 ± SEM h-P2Y4; for inhibition at 100 µM: 1321-N1, final conc of 100 μM, read-out: % Inhibition h-P2Y4
T3 construct: host or cells: human 1321N1 astrocytoma cells, stably transfected
Method: as §1, §2

[5] = MTT assay, non-transfected 1321N1 astrocytoma cells; format: cell-based, human; settings: human, non-transfected 1321N1 astrocytoma cells; at 50 µM; non-transfected astrocytoma 1321N1 cells; triplicate; read-out: H-1321N1 Cell Line (%cytotoxicity ±SEM)
Method: A 96-well plate was used to plate 20,000 human 1321N1 astrocytoma cells and allowed for incubation for 24 h at temp of 37°C in CO2 (5%) incubator. Next to this, the prepared culture media was changed to media which was free from FBS, the test compounds were added and the incubation process was repeated. After incubation of 24 h, the serum free media from the wells was discarded, and 100 μL of the reagent i.e., MTT reagent was pipetted. Plate was then additionally incubated at 37°C for 4 h. Utilizing a microplate reader, absorbance was determined at 570 nm and 630 nm for calculation of cell viability (FLUOstarOmega Microplate Reader-BMG LABTECH GmbH, Ortenberg, Germany) ([Sauer et al., 2009]).

[6] = MTT assay, HeLa; format: cell-based; settings: human, HeLa cells; at 50 µM; triplicate; read-out: HeLa Cell Line (%cytotoxicity ±SEM)
[7] = molecular target: T4, h-P2Y2 (Homo sapiens, UniProt P41231); assay: Calcium mobilization assay, h-P2Y2 transfected 1321N1 astrocytoma cells; format: cell-based; settings: 500 μM ATP; for IC50: Ca2+ mobilization inhibition, transfected 1321N1 cells, read-out: IC50 ± SEM h-P2Y2; for inhibition at 100 µM: 1321-N1, final conc of 100 μM
T4 construct: host or cells: human 1321N1 astrocytoma cells, stably transfected
Method: as §1, §2

[8] = MTT assay, HEK-293; format: cell-based; settings: human, HEK-293 cells; at 50 µM; triplicate; read-out: HEK-293 Cell Line (%cytotoxicity ±SEM)
[9] = was reported; cited from earlier work
[10] = molecular target: hP2Y1; parameters: method as in Peng et al., 2018; settings: Figure 1, reported antagonist; ref Peng et al., 2018; cited from earlier work
[11] = test system: P2Y12; parameters: method as in Oestreich, 2010; Boldron et al., 2014; settings: Figure 1, reported antagonists; ref Oestreich, 2010; Boldron et al., 2014; cited from earlier work
[12] = test system: P2X3; parameters: method as in Bae et al., 2022; settings: Figure 1, reported antagonist; ref Bae et al., 2022; cited from earlier work

T4 sequence (P41231 whole entry): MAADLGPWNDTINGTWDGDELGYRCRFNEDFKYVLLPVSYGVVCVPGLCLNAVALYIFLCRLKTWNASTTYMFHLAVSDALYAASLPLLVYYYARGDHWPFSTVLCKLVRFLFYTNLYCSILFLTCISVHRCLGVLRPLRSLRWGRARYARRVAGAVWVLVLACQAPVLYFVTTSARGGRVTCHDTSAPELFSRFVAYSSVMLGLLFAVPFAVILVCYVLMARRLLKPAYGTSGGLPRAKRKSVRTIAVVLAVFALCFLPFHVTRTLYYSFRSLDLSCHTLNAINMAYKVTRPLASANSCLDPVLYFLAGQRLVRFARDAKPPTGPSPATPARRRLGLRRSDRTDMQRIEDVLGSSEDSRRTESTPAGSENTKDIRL
T1 sequence (P49652 whole entry): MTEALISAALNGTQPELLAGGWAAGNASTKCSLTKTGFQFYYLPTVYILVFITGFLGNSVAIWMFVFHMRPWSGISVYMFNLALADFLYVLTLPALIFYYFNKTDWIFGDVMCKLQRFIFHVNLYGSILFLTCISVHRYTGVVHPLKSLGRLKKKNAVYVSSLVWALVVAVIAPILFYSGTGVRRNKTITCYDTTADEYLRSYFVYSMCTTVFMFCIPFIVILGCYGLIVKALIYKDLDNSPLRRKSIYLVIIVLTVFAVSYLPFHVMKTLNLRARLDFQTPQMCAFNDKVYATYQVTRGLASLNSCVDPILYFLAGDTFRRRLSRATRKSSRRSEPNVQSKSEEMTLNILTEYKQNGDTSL
T2 sequence (Q63371 whole entry): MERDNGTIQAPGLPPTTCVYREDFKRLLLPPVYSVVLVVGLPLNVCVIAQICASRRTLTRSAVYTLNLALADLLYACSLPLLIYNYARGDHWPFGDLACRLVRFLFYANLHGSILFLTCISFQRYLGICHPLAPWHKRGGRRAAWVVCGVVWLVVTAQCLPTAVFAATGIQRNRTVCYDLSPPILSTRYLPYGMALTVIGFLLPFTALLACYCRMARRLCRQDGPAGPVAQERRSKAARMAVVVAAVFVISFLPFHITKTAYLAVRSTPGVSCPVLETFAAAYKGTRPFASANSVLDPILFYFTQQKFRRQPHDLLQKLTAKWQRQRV
T3 sequence (P51582 whole entry): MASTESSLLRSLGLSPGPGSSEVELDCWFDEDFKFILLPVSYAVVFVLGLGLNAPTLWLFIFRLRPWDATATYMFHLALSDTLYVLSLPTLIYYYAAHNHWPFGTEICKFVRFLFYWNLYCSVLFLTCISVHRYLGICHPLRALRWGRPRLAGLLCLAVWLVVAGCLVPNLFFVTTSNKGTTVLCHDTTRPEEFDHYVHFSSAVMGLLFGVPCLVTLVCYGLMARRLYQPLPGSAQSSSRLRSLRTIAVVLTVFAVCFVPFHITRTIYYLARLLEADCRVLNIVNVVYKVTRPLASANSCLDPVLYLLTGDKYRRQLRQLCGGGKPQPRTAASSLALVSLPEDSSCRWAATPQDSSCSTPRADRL

Row | SMILES | IC50 [2] [µM] | inhibition at 100 µM [3] [%] | cytotoxicity at 24 h, 50 µM [5] [%] | cytotoxicity at 24 h, 50 µM [6] [%] | melting point [°C] | cytotoxicity at 24 h, 50 µM [8] [%] | inhibition at 100 µM [4] [%] | inhibition at 100 µM [7] [%] | also measured
1 | Nc1nc2cc(Cl)ccc2n1C(=O)NS(=O)(=O)c1cc(Cl)cc(Cl)c1O [1h, 2-Amino-5-chloro-N-((3,5-dichloro-2-hydroxyphenyl)sulfonyl)-1H-benzo [d]imidazole-1-carboxamide] | 0.19 ± 0.04 | 34 | 32.8 ± 0.7 | 22.3 ± 0.8 | 124 to 126 | 27.4 ± 1.2 | – | – | solubility ([1]; Figure 7, UV absorption at 384 nm): 287 µg/mL (≈ 659 µM); solubility ([1]; aqueous buffer, thermodynamic from solid, PBS buffer (pH 7.4), UV absorption spectroscopy, read-out: aqueous solubility): 287 µg/mL (≈ 659 µM); inhibition of P2Y2 less as compared to P2Y1 ([2]; P2Y2 versus P2Y1): 20 fold; activity against P2Y6 in words [3]: inactive; IC50 [4]: 0.91 ± 0.04 µM; IC50 [7]: 4.13 ± 1.02 µM
2 | O=C(NS(=O)(=O)c1ccccc1)n1c(Cl)nc2ccccc21 [1q, 2-Chloro-N-(phenylsulfonyl)-1H-benzo [d]imidazole-1-carboxamide] | 14.6 ± 1.01 | 48 | 33.6 ± 0.7 | 29.7 ± 1.1 | 179 to 181 | 30.1 ± 0.2 | 13 | – | IC50 [7]: 13.6 ± 1.97 µM
3 | O=C(NS(=O)(=O)c1ccc(-c2ccccc2)cc1)n1c(Cl)nc2ccccc21 [1r, N-([1.1′-biphenyl]-4-ylsulfonyl)-2-chloro-1H-benzo [d]imidazole-1-carboxamide] | 23.44 ± 0.22 | 34 | 31.5 ± 0.4 | 26.5 ± 0.5 | 172 to 174 | 33.2 ± 0.1 | 22 | 47 | –
4 | O=C(NS(=O)(=O)c1ccc(Cl)cc1)n1c(Cl)nc2ccccc21 [1s, 2-Chloro-N-((4-chlorophenyl)sulfonyl)-1H-benzo [d]imidazole-1-carboxamide] | 3.11 ± 0.23 | – | 14.4 ± 0.2 | 19.5 ± 0.2 | 180 to 182 | 12.1 ± 0.7 | – | – | IC50 [3]: 12.7 ± 1.02 µM; IC50 [4]: 2.67 ± 0.07 µM; IC50 [7]: 6.15 ± 1.08 µM
5 | O=C(NS(=O)(=O)c1ccc([N+](=O)[O-])cc1)n1c(Cl)nc2ccccc21 [1t, 2-Chloro-N-((4-nitrophenyl)sulfonyl)-1H-benzo [d]imidazole-1-carboxamide] | 6.04 ± 1.03 | – | 27.6 ± 0.4 | 20.3 ± 0.4 | 166 to 168 | 21.4 ± 1.1 | 26 | 42 | IC50 [3]: 12.4 ± 1.1 µM
6 | COc1ccc(S(=O)(=O)NC(=O)n2c(OC)nc3ccccc32)cc1 [1u, 2-Methoxy-N-((4-methoxyphenyl)sulfonyl)-1H-benzo [d]imidazole-1-carboxamide] | – | 18 | 25.5 ± 0.3 | 21.7 ± 0.6 | 177 to 179 | 32.2 ± 0.9 | 30 | 10 | inhibition at 100 µM [2]: 31%
7 | COc1nc2ccccc2n1C(=O)NS(=O)(=O)c1ccc(Cl)cc1 [1v, N-((4-chlorophenyl)sulfonyl)-2-methoxy-1H-benzo [d]imidazole-1-carboxamide] | – | 19 | 19.7 ± 0.1 | 24.1 ± 0.3 | 152 to 154 | 12.2 ± 0.7 | 23 | 19 | inhibition at 100 µM [2]: 42%
8 | Cc1ccc(S(=O)(=O)NC(=O)n2c(N)nc3ccccc32)cc1 [1w, 2-Amino-N-tosyl-1H-benzo [d]imidazole-1-carboxamide] | – | 39 | 23.2 ± 0.3 | 21.3 ± 0.5 | 165 to 167 | 27.4 ± 0.3 | 41 | 23 | inhibition at 100 µM [2]: 49%
9 | Cc1ccc(S(=O)(=O)NC(=O)n2c(N)nc3cc(Cl)ccc32)cc1 [1x, 2-Amino-5-chloro-N-tosyl-1H-benzo [d]imidazole-1-carboxamide] | 10 ± 0.12 | 41 | 12.6 ± 0.5 | 29.8 ± 1.5 | 188 to 190 | 32.1 ± 0.7 | 29 | 38 | –
10 | Nc1nc2ccccc2n1C(=O)NS(=O)(=O)c1ccc(-c2ccccc2)cc1 [1y, N-([1.1′-biphenyl]-4-ylsulfonyl)-2-amino-1H-benzo [d]imidazole-1-carboxamide] | – | 23 | 43.1 ± 0.8 | 32.6 ± 0.3 | 176 to 178 | 39.7 ± 0.2 | 18 | 20 | inhibition at 100 µM [2]: 12%
11 | CC(C)(C)c1ccccc1Oc1ncccc1NC(=O)Nc1ccc(OC(F)(F)F)cc1 [BPTU, 1-(2-(2-tert-butyl-phenoxy)pyridin-3-yl)-3–4-(trifluoromethoxy) phenylurea] | – | – | – | – | – | – | – | – | solubility in water [9]: less than 0.1 mg/mL; Ki [10]: 0.006 µM
12 | CNc1cc2[nH]c(=O)n(-c3ccc(NC(=O)NS(=O)(=O)c4ccc(Cl)s4)cc3)c(=O)c2cc1F [Elinogrel] | – | – | – | – | – | – | – | – | IC50 [11]: 0.02 µM
13 | Cc1nc2c([nH]1)C(=O)C(Cl)=C(Nc1ccc(F)c(F)c1)C2=O [KCB77033] | – | – | – | – | – | – | – | – | IC50 [12]: 1.03 µM
14 | CCCC(=O)c1cnn(-c2ccc(NC(=O)c3cn(CC(=O)N4CCNCC4)c4ccc(Cl)cc34)nn2)c1C [SAR 216471 hydrochloride] | – | – | – | – | – | – | – | – | IC50 [11]: 0.017 µM
